Experimental data published in publication PMC11546692 (International Journal of Molecular Sciences, 2024).

Experiments:
[1] = tested on: MiaPaCa-2 human pancreatic cancer cells xenograft; experiment: Subcutaneous MiaPaCa-2 xenograft tumor growth in Scid mice; type: in vivo
[2] = tested on: normal pancreatic epithelial cell line (HPDE); type: cell-based
PANC-1 cells [3] = details: PANC-1, 48 h, MTT
PANC-1 cells [4] = experiment: Cell cycle by propidium iodide flow cytometry; type: cell-based, human; details: PANC-1, 0.2 μM, 24 h
Description: (§1) ATO inhibited PC cell growth by stimulation of apoptosis. The effects of PhAs-LHP on cell cycle and cell death were determined by flow cytometry analysis. In MiaPaCa-2 cells, after 48 h treatment, ATO induced about 15% cell death at 0.5 μM while PhAs-LHP (0.05 μM) caused 24% cell death at ten times lower concentrations than ATO (Figure 4A). Likewise, after 24 h treatment, ATO (2 μM) and PhAs-LHP (0.2 μM) induced cell cycle arrest at the G2/M phase in PANC-1 cells (Figure 4B).
(§2) Figure 4 PhAs-LHP induced cell death and cell cycle arrest more potently than ATO. MiaPaCa-2 cells were treated with ATO (0.5 μM) or PhAs-LHP (0.05 μM) for 48 h (A). PANC-1 cells were treated with ATO (2 μM) or PhAs-LHP (0.2 μM) for 24 h (B). Both MiaPaCa-2 and PANC-1 cells were then stained with propidium iodide (PI) and subjected to flow cytometry analysis. Numbers indicate the percent of PI-negative cells of a total of 10,000 cells analyzed per condition (A). TEXT PRINTED IN THE PICTURE: (A) ATO: % PI Negative 85.4 (0.5 μM) | (A) PhAs-LHP: % PI Negative 75.9 (0.05 μM) | (B) ATO: %G1 28.9 (2 μM); %S 16.7 (2 μM); %G2 48.9 (2 μM) | (B) PhAs-LHP: %G1 39.3 (0.2 μM); %S 19.8 (0.2 μM); %G2 38.6 (0.2 μM)
Cell death and cell cycle were assayed using propidium iodide (PI) and flow cytometry. Cells were treated with ATO or PhAs-LHP with the concentrations indicated in the text for 48 h for measuring cell death or 24 h for determining cell cycle arrest. All floating and adhering cells were then trypsinized and washed two times with cold phosphate-buffered saline (PBS). For cell death assays, cells were harvested and resuspended in PBS containing 1 μg/mL PI. For cell cycle analysis, cells were harvested and resuspended in PBS containing 0.1% Triton X-100, 50 μg/mL PI, and 10 μg/mL RNaseA (Thermo Scientific, Melbourne, Australia) and then incubated at 37 °C for 15 min. Samples were processed with the FACSymphony A3 flow cytometer (BD Biosciences), and the acquired data were analyzed with the FlowJo software (BD Biosciences, San Jose, CA, USA).

MiaPaCa-2 cells [5] = experiment: Cell death by propidium iodide flow cytometry; type: cell-based, human; details: MiaPaCa-2, 0.05 μM, 48 h
Description: as §1
as §2, with “TEXT PRINTED IN THE PICTURE: (A) ATO: % PI Negative 85.4 (0.5 μM) | (A) PhAs-LHP: % PI Negative 75.9 (0.05 μM) | (B) ATO: %G1 28.9 (2 μM); %S 16.7 (2 μM); %G2 48.9 (2 μM) | (B) PhAs-LHP: %G1 39.3 (0.2 μM); %S 19.8 (0.2 μM); %G2 38.6 (0.2 μM)” left out
Cell death and cell cycle were assayed using propidium iodide (PI) and flow cytometry. […] Samples were processed with the FACSymphony A3 flow cytometer (BD Biosciences), and the acquired data were analyzed with the FlowJo software (BD Biosciences, San Jose, CA, USA).

TB33117 cells = details: TB33117, 48 h, MTT
[6] = in vivo
[7] = mouse, in vivo
MiaPaCa-2 cells [8] = details: MiaPaCa-2, 48 h, MTT
Skp2 = Skp2 immunohistochemical staining of xenografted tumors; type: in vivo, Scid mice
[9] = tested on: pancreatic cancer (PC) cells; experiment: MTT proliferation of human and murine pancreatic cancer cells (overall statements, combinations); type: cell-based; details: MiaPaCa-2, PANC-1, TB33117, KPCWT942
[10] = read-out: IC50 inhibition of PC cell proliferation

Compound: CC(=O)N[C@H]1CS[As](c2ccccc2)SC[C@@H](C(N)=O)NC(=O)[C@H](CCCNC(=N)N)NC(=O)[C@H](CCCNC(=N)N)NC(=O)[C@H](CC(C)C)NC(=O)[C@H](CCCNC(=N)N)NC(=O)[C@H](Cc2c[nH]cn2)NC(=O)[C@H](Cc2ccc(O)cc2)NC(=O)[C@H](C)NC1=O (some centres unmarked) [PhAs-LHP]
- further reduction in tumor volumes and weight on top of Gem ([1]; mouse, in vivo): further decreased tumor volumes
- relative tumor growth (Day 7 volume = 100%) ([1]; mouse, in vivo): significantly slower than of Gem plus PAO
- pancreatic tumor growth (tumor volume, tumor weight) ([1]; mouse, in vivo, ip): significantly suppressed pancreatic tumor growth
- reduction of proliferation of HPDE [2]: 10%
- IC50 (PANC-1 cells [3]; [10]): 210 ± 30 nM
- %G1 (PANC-1 cells [4]): 39.3%
- %G2 (PANC-1 cells [4]): 38.6%
- %S (PANC-1 cells [4]): 19.8%
- cell death (MiaPaCa-2 cells [5]): 24%
- % PI Negative (MiaPaCa-2 cells [5]; of 10,000 cells): 75.9%
- IC50 (TB33117 cells; [10]): 200 ± 50 nM
- toxicity (mouse body weight) [6]: No toxicity was observed
- arsenic (As) in brain, heart, liver and kidney [7]: not detected
- IC50 (MiaPaCa-2 cells [8]; [10]): 120 ± 100 nM
- levels of Skp2 in tumors, combination with gemcitabine (Skp2; mouse, in vivo): did not further reduce the expression of Skp2
- levels of Skp2 in tumors (Skp2; mouse, in vivo, ip): reduced

Compound: Cc1nc(Nc2[nH]nc3c2CN(C(=O)N[C@H](CN(C)C)c2ccccc2)C3(C)C)c2sccc2n1 [PF-3758309]
- effect of pre-treatment on inhibition of PC cell growth by ATO ([9]; 24 h pre-incubation with PF-3758309, then 48 h ATO): enhanced the inhibitory effects of ATO

Compound: Nc1ccn([C@@H]2O[C@H](CO)[C@@H](O)C2(F)F)c(=O)n1 [Gem, gemcitabine, reference compound]
- PC growth (tumor volume, tumor weight) ([1]; 50 mg/kg i.p. every 4 days, alone, vs control): significantly decreased PC growth
- effect of pre-treatment on inhibition of PC cell growth by ATO ([9]; 24 h pre-incubation with Gem, then 48 h ATO): enhanced the inhibitory effects of ATO
- levels of Skp2 in tumors (Skp2; 50 mg/kg i.p., vs non-treatment control, IHC): reduced

Compound: CAYHRLRRC [LHP, reference compound]
- effect on cell proliferation (PANC-1 cells [3]): did not affect the proliferation
- effect on cell proliferation (TB33117 cells): did not affect the proliferation
- effect on cell proliferation (MiaPaCa-2 cells [8]): did not affect the proliferation
